This note sets out measurements from ChEMBL document CHEMBL3875189, “A benzo[b]thiophene-based selective type 4 S1P receptor agonist” (Bioorg Med Chem Lett, 2017).

Test [1] has as its target T1, Sphingosine 1-phosphate receptor 5 (Homo sapiens, UniProt Q9H228). Nature of the test: Agonist activity at recombinant human S1PR5 expressed in CHO cell membranes assessed as [35S]GTP-gammaS binding measured after 1.5 hrs by TopCount scintillation counting method relative to S1P. Background: GTPγS is a poorly hydrolysed GTP analogue; its binding reports G protein activation.

Test [2] concerns the target T2, Sphingosine 1-phosphate receptor 4 (Homo sapiens, UniProt O95977).
T2 sequence (O95977 whole entry): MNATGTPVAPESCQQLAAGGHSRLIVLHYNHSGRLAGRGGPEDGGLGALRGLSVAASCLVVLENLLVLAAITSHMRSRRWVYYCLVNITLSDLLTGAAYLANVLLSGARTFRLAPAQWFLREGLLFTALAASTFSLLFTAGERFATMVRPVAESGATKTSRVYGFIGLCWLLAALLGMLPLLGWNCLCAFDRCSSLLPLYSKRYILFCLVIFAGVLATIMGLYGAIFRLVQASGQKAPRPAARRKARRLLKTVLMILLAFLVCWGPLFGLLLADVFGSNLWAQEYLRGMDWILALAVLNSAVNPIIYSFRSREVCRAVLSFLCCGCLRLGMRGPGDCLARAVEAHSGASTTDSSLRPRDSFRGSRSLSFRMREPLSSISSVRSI
Nature of the test: Agonist activity at recombinant human S1PR4 expressed in CHO cell membranes assessed as [35S]GTP-gammaS binding measured after 1.5 hrs by TopCount scintillation counting method.

Test [3] addresses T1, Sphingosine 1-phosphate receptor 5. Nature of the test: Agonist activity at recombinant human S1PR5 expressed in CHO cell membranes assessed as [35S]GTP-gammaS binding measured after 1.5 hrs by TopCount scintillation counting method.

T1 sequence (Q9H228 whole entry): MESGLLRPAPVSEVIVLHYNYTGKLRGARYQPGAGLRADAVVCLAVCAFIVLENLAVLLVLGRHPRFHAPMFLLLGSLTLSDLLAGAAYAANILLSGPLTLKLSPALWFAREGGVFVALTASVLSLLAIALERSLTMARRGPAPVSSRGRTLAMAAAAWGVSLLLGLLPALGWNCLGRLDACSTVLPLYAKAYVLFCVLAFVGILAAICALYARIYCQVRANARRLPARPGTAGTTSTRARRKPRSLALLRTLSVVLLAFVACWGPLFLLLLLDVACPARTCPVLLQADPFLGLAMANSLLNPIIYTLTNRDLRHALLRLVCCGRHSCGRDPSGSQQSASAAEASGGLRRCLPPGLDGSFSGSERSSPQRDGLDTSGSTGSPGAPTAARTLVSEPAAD

With `O=C(O)CCCCNCc1cc2cccc(-c3ccc4ccccc4c3)c2s1`, the Efficacy in test [1] came to 37%. Besides, the EC50 (usually the concentration at which the effect is half-maximal) in test [2] turned out to be 410 nM; in test [3], 412 nM.
Consider `CCc1ccccc1-c1cccc2sc(CNCCCC(=O)O)cc12`, for which the EC50 in test [2] was 18300 nM; in test [3] it was > 100000 nM.
Take `CC(CNCc1cc2cc(-c3ccc4ccccc4c3)ccc2s1)C(=O)O` (stereo not drawn): the Efficacy in test [1] was determined as 77%. Besides, the concentration giving a half-maximal response (EC50) in test [2] worked out at 115 nM; in test [3] it was 232 nM.
For `CCc1ccccc1-c1cccc2sc(CNc3ccc(CC(=O)O)cc3)cc12`, in that order: 9%, 2570 nM and 4770 nM.
Consider `CCc1ccccc1-c1cccc2cc(CN3CC(C(=O)O)C3)sc12`, for which the concentration for a half-maximal effect (EC50) in test [2] and in test [3] was > 100000 nM each time.
Consider `CCc1ccccc1-c1cccc2sc(CNCc3ccc(C(=O)O)cc3)cc12`, for which the Efficacy in test [1] stood at 11%. For the same molecule, the results for the EC50 in test [2] and in test [3] were > 100000 nM and 6700 nM, respectively.
Turning to `COc1ccc2cc(-c3cccc4cc(CNCCCC(=O)O)sc34)ccc2c1`, the EC50 in test [2] is 1930 nM; in test [3], > 100000 nM.
Take `CCc1ccccc1-c1cccc2cc(CNCCCC(=O)O)sc12`: the EC50 in test [2] and in test [3] was > 100000 nM throughout.
As for `O=C(O)c1ccc(CNCc2cc3cccc(-c4ccc5ccccc5c4)c3s2)cc1`, the Efficacy in test [1] was 23%. Moreover, the results for the EC50 in test [2] and in test [3] were > 100000 nM and 4510 nM, respectively.
For `CCc1ccccc1-c1cccc2cc(CNCC(=O)O)sc12`, the EC50 in test [2] and in test [3] was > 100000 nM throughout.
Turning to `Cc1ccccc1-c1cccc2cc(CNCCCC(=O)O)sc12`, the Efficacy in test [1] came out at 7%. The EC50 was 13500 nM in test [2] and 3540 nM in test [3].
For `O=C(O)Cc1ccc(NCc2cc3cccc(-c4ccc5ccccc5c4)c3s2)cc1`, in that order: 32%, 1430 nM and 4020 nM.
On to `O=C(O)CCCNCc1cc2cccc(-c3cccc(C(F)(F)F)c3)c2s1`, for which, in test [1], the Efficacy stood at 39%. Further, the EC50 amounted to 693 nM in test [2] and 3070 nM in test [3].
With `O=C(O)Cc1ccc(NCc2cc3c(-c4ccc5ccccc5c4)cccc3s2)cc1`, the EC50 in test [2] and in test [3] was > 100000 nM in each case.
For `CC(C)(C)c1ccc(-c2cccc3cc(CNCCCC(=O)O)sc23)cc1`, the Efficacy in test [1] turned out to be 26%. For the same molecule, the 50% effective concentration (EC50) in test [2] was 5070 nM; in test [3] it was 4690 nM.
In the case of `CCc1ccccc1-c1cccc2sc(CNCC(N)C(=O)O)cc12` (stereo not drawn), the EC50 in test [2] is 57600 nM; in test [3], > 100000 nM.
`O=C(O)CNCc1cc2cccc(-c3ccc4ccccc4c3)c2s1`: the Efficacy in test [1] is 32%. The EC50 in test [2] amounted to 1480 nM; in test [3], 272 nM.
For `NC(CNCc1cc2cc(-c3ccc4ccccc4c3)ccc2s1)C(=O)O` (stereo not drawn) the same measures were 69%, 541 nM and 728 nM.
With `O=C(O)CCNCc1cc2cccc(-c3ccc4ccccc4c3)c2s1`, in test [1], the Efficacy turned out to be 36%. Also, the EC50 came out at 187 nM in test [2] and 280 nM in test [3].
As for `O=C(O)CCCNCc1cc2cccc(-c3cccc4ccccc34)c2s1`, the Efficacy in test [1] came out at 25%. In addition, the EC50 in test [2] was determined as 1980 nM; in test [3] it was 2320 nM.
For `O=C(O)CNCc1cc2cc(-c3ccc4ccccc4c3)ccc2s1`, in that order: 63%, 350 nM and 350 nM.
For `CCc1ccccc1-c1cccc2cc(CNCC(N)C(=O)O)sc12` (stereo not drawn) the same measures were 25%, 3100 nM and 1560 nM.
On to `CCc1ccccc1-c1cccc2sc(CNCCCCC(=O)O)cc12`, for which the EC50 in test [2] was 11100 nM; in test [3], > 100000 nM.
In the case of `CC(CNCc1cc2cccc(-c3ccc4ccccc4c3)c2s1)C(=O)O` (stereo not drawn), the Efficacy in test [1] was found to be 32%. Besides, the concentration giving a half-maximal response (EC50) is 1020 nM in test [2] and 887 nM in test [3].
For `NC(CNCc1cc2cccc(-c3ccc4ccccc4c3)c2s1)C(=O)O` (stereo not drawn), in that order: 35%, 694 nM and 1070 nM.
With `O=C(O)Cc1ccc(NCc2cc3cc(-c4ccc5ccccc5c4)ccc3s2)cc1`, the EC50 in test [2] and in test [3] was > 100000 nM in each case.
In the case of `CCc1ccccc1-c1cccc2sc(CNc3cccc(CC(=O)O)c3)cc12`, the EC50 in test [2] was 470 nM; in test [3], > 100000 nM.
Consider `O=C(O)Cc1cccc(NCc2cc3c(-c4ccc5ccccc5c4)cccc3s2)c1`, for which the Efficacy in test [1] was determined as 23%. Also, in test [3], the EC50 turned out to be 2140 nM.
As for `O=C(O)CCNCc1cc2cc(-c3ccc4ccccc4c3)ccc2s1`, in test [1], the Efficacy turned out to be 78%. Besides, the EC50 came to 38 nM in test [2] and 25 nM in test [3].
For `O=C(O)CCCNCc1cc2cccc(-c3ccc(C(F)(F)F)cc3)c2s1`, in that order: 15%, 1900 nM and 552 nM.
For `O=C(O)CCCNCc1cc2cccc(-c3ccc(-c4ccccc4)cc3)c2s1`, in that order: 10%, 2060 nM and 6450 nM.
For `CCc1ccccc1-c1cccc2cc(CNc3cccc(CC(=O)O)c3)sc12`, in that order: 36%, 1190 nM and 3970 nM.
On to `O=C(O)C1CN(Cc2cc3cccc(-c4ccc5ccccc5c4)c3s2)C1`, for which, in test [1], the Efficacy came to 13%. For the same molecule, the results for the EC50 in test [2] and in test [3] were > 100000 nM and 506 nM, respectively.
As to `O=C(O)Cc1cccc(NCc2cc3cc(-c4ccc5ccccc5c4)ccc3s2)c1`, the Efficacy in test [1] was found to be 12%. Moreover, the EC50 was > 100000 nM in test [2] and 769 nM in test [3].
For `O=C(O)C1CN(Cc2cc3c(-c4ccc5ccccc5c4)cccc3s2)C1`, in that order: 14%, 1010 nM and 175 nM.
In the case of `CCc1ccccc1-c1cccc2cc(CNCc3ccc(C(=O)O)cc3)sc12`, the EC50 in test [2] and in test [3] was > 100000 nM throughout.
With `Cc1cccc(-c2cccc3cc(CNCCCC(=O)O)sc23)c1`, the Efficacy in test [1] came out at 25%. The EC50 in test [2] turned out to be 9250 nM; in test [3], 10300 nM.
In the case of `O=C(O)c1ccc(CNCc2cc3cc(-c4ccc5ccccc5c4)ccc3s2)cc1`, the EC50 in test [2] and in test [3] was > 100000 nM throughout.
Take `CCc1ccccc1-c1cccc2sc(CNCC(C)C(=O)O)cc12` (stereo not drawn): the figures for the EC50 in test [2] and in test [3] were 10300 nM and > 100000 nM, respectively.
For the molecule `O=C(O)CCCNCc1cc2cccc(-c3cccc(-c4ccccc4)c3)c2s1`, the Efficacy in test [1] came out at 18%. The values for the EC50 in test [2] and in test [3] were 331 nM and 49 nM, respectively.
On to `CCc1ccccc1-c1cccc2cc(CNCCCCC(=O)O)sc12`, for which the Efficacy in test [1] stood at 16%. Moreover, the EC50 is > 100000 nM in test [2] and 2490 nM in test [3].
Consider `O=C(O)CCCNCc1cc2cc(-c3ccc4ccccc4c3)ccc2s1`, for which the Efficacy in test [1] was 65%. In addition, the EC50 in test [2] was determined as 165 nM; in test [3], 143 nM.
For `O=C(O)CCCNCc1cc2cccc(-c3ccc4c(c3)OCO4)c2s1` the same measures were 26%, 3920 nM and 3130 nM.
For `NC(CNCc1cc2c(-c3ccc4ccccc4c3)cccc2s1)C(=O)O` (stereo not drawn) the same measures were 34%, 1100 nM and 329 nM.
For `O=C(O)CCCCNCc1cc2cc(-c3ccc4ccccc4c3)ccc2s1`, in that order: 54%, 724 nM and 709 nM.
For the molecule `O=C(O)Cc1cccc(NCc2cc3cccc(-c4ccc5ccccc5c4)c3s2)c1`, the Efficacy in test [1] turned out to be 22%. Moreover, the EC50 in test [2] was determined as 816 nM; in test [3], 1670 nM.
Take `CCc1ccccc1-c1cccc2sc(CNCC(=O)O)cc12`: the EC50 in test [2] and in test [3] was > 100000 nM throughout.
As for `CCc1ccccc1-c1cccc2cc(CNc3ccc(CC(=O)O)cc3)sc12`, the Efficacy in test [1] stood at 20%. For the same molecule, the EC50 in test [2] is 3410 nM; in test [3], 2100 nM.
For `CCc1ccccc1-c1cccc2sc(CN3CC(C(=O)O)C3)cc12`, in that order: 10%, > 100000 nM and 21200 nM.
For `Cc1ccc(-c2cccc3cc(CNCCCC(=O)O)sc23)cc1`, in that order: 43%, 19900 nM and 2810 nM.
For `CCc1ccccc1-c1cccc2cc(CNCCC(=O)O)sc12` the same measures were 15%, > 100000 nM and 2590 nM.
Take `CCc1ccccc1-c1cccc2cc(CNCC(C)C(=O)O)sc12` (stereo not drawn): in test [1], the Efficacy came out at 10%. Further, the EC50 was > 100000 nM in test [2] and 4220 nM in test [3].
For the molecule `CCc1ccccc1-c1cccc2sc(CNCCC(=O)O)cc12`, the EC50 in test [2] and in test [3] was > 100000 nM throughout.
